US4514330A, “Carbon-7-substituted atinomycin D analogue” (Trustees of Boston University, priority 1983, dated 1985)
Converted amounts (≈) assume the structure as drawn. Read-outs that look alike come from different tables or passages of the source. Starred links: 1 amine or outer side, 2 acyl side, 3 side chain; linkers in the order of their positions; H or OH if unused. Positions of bridges follow the written chain, without caps; N, C: chain ends. Non-standard residues stand in square brackets, D forms with d. Residues, ends and D or L forms follow the SMILES beside them. Chains are numbered I, II in the order given. Actinocin(9to1) = Cc1c2oc3c(C)ccc(C(=O)[*:1])c3nc-2c(C(=O)[*:2])c(N)c1=O; NMeV = CN[C@H](C(=O)O)C(C)C; Sar = CNCC(=O)O

Columns and labels:
[1] = test system: human lymphoblastic leukemic cells (CCRF-CEM); assay: In vitro growth-inhibitory activity against human lymphoblastic leukemic cells (CCRF-CEM) in log phase; type: cell-based; settings: Homo sapiens, final growth medium contained 1% Me2SO, log phase, read-out: ID50 (in vitro growth inhibition, CCRF-CEM)
Protocol: ^b Using human lymohoblastic leukemia cells in logplastic growth.
Compounds were dissolved in Me2 So medium, final growth medium

[2] = test system: DNA-dependent RNA synthesis; settings: submicromolar concentrations; cited from earlier work
[3] = test system: DNA; settings: known analogues; cited from earlier work
[4] = test system: patients; settings: attributed to lack of metabolism / excretion; listed as AMD; cited from earlier work
[5] = test system: normal CDF1 male mice; assay: Maximum tolerated dose (LD10) in normal, tumor-free CDF1 male mice; type: in vivo; settings: deaths during 21 days
Protocol: ^c MTD (maximum tolerated dose) is the lethal dose
(milligrams/kilogram) for 10% normal CDF1 male mice (18-23 g);
were calculated from a plot of log dose vs. percent mortality. Average of
two to three experiments.
Biological Experiments. Determination of LD10 Values. Tumor-free CDF1 male mice weighing 18-23 g were given a broad range of doses of drugs in 10% dimethyl sulfoxide-saline on either days 1, 5 and 9 or on 4 successive days. Drugs were administered intraperitoneally (ip).
The maximum tolerated doses of AMD and analogues that caused deaths in only 10% of the tested animals in 21 days were recorded as MTD. The results are an average of two experiments in each. The MTD values obtained following schedules q4d 1, 5, 9 (three injections) and qd 1-4 (four injections) are recorded in Table IV. These doses are the same as LD10 (lethal dose of 10% of tumor-free animals in 21 days).

[6] = test system: P-388 leukemia; assay: In vivo antitumor activity against P-388 lymphocytic leukemia in CDF1 mice; settings: for % ILS (percent increase in life span) / MST (median survival time) / cure (over 55 day survivors): days 1, 5, 9; for minimal effective dose: Mus musculus, P388, ip, read-out: MED (minimum effective dose, 40% increase in life span over control)
Protocol: Studies on in vivo activity of AMD and AMD analogues were carried out with P-388 lymphocytic leukemia in CDF1 hybrid mice. The drugs were administered either daily for 4 successive days (qd 1-4) or on days 1, 5 and 9 (q4d 1, 5, 9) beginning 1 day after tumor implantation.
^a Male CDF1 (18-23 g) mice were inoculated intraperitoneally
(ip) with 10^6 P388 cells on day 0. Drugs were administered, also ip,
in 10% dimethyl sulfoxidesaline on days 1, 5 and 9. Test solutions were
kept at 0-4° C., protected from light, and the stability and
homogeneity were checked periodically by TLC and HPLC.
^b MST = median survival time.
^c % ILS = percent increase in life span.
^d Over 55 day survivors. Average of three experiments. The
^a Drugs administed ip once daily either for 4 successive days (qd
1-4) or on days 1, 5 and 9 (q4d 1, 5 9), starting 1 day after tumor
^b MED (minimum effective dose) is the dose (milligrams/kilogram)
providing an increase in life span of 40% over control in P388

[7] = test system: spleen, liver, kidney, large and small intestine, heart, lung, pancreas and adrenals; assay: Gross pathology of organ sections at LD10 (MTD) dose levels, day 14; type: in vivo, CDF1 mice
Protocol: In an additional experiment, two animals at LD10 (or MTD) dose levels were sacrificed on day 14, and the organ sections from these animals were evaluated for gross pathology in the following way. Organs, e.g., spleen, liver, kidney, large and small intestine, heart, lung, pancreas and adrenals, were removed and fixed in 10% […] buffer formalin. They were kept immersed for 2 weeks; tissues were dehydrated through graded alcohols (70, 90, 95 and 100%), cleared in cedarwood oil and embedded in paraffin. Sections were cut in 7 μm and mounted with gelatin on microscope slides. After drying, sections were stained with Mayer's hematoxylin and eosin and examined with light microscopy.

[8] = test system: Wilm's tumor, gestational choriocarcinoma, and Kaposi's sarcoma; settings: cited from earlier work
[9] = cited from earlier work
[10] = test system: DNA; assay: Thermal denaturation of DNA (ΔTm), stabilization of DNA helical structure on drug binding; parameters: species or system calf thymus
Protocol: Thermal denaturation studies were carried out according to the procedure described in J. Med. Chem., Vol. 24, p. 1052 (1981). The ΔTm values in Table II give a measure of stabilization of DNA helical structure as a consequence of drug binding.
^a ΔTm = m of DNAdrug complex minus m of DNA.
Concentraiton of drug, 1.4 × 10^-4 M; of DNA (P), 1.4 ×
10^-3 M in 0.01 M phosphate buffer (pH 7.0), 5 × 10^-3 M in
EDTA and 5% dimethyl sulfoxide.
^d Highest dose tested. These values are derived at high temperatur
(67°-75° C.) and may not always correlate with the results
of other DNA-binding studies (e.g., absorptiometric or circular dichroic).
Melting points were obtained with a Thomas-Hoover melting point apparatus at a heating rate of 2° C./min. Column chromatography was accomplished with silica gel powder (Baker No. 3405, 60-20 mesh) or acid alumina (Woelm grade 1). Limited gel-filtration work was done on Sephadex LH-20, particle size 25-100 μm (Pharmacia Fine Chemicals). Thin-layer chromatography was performed on silica gel plates (E. M. Laboratories, Inc.). Solvent systems used were (A) butanol-formic acid-H2 O (75:13:12), (B) EtOAc-acetone (3:1), and (C) Cifferri, the organic phase of the mixture EtOAc-MeOH-H2 O (20:1:20). High-performance liquid chromatography was carried out on a Varian Model 5020 gradient liquid chromatograph equipped with CD-111L chromatography data system and fitted with Varian reversed-phase C18 column with isocratic solvent systems, CH3 -CN-5 mM NH4 OAc buffer, pH 6.4 (68:32 or 62:38), pressure 80-140 atm, flow rate 1.5 mL/min, with UV-visible variable and fixed wavelength dual detectors at 254 and 466 nm. Spectra were determined on the following instruments: IR spectra were obtained with a Perkin-Elmer Model 237 Infra Cord with KBr micropellets or chloroform solutions; UV-visible spectra were obtained on a Gilford 250 spectrophotometer, which, with the addition of a base-line reference compensator (Analog Multiplexer 6064) and thermoprogrammer, auto four cell programmer and thermoelectric cell holder 2577, was used to obtain thermal denaturation curves; NMR spectra were obtained on a JOEL FQ-90-90MHZ spectrometer equipped with Fourier transform; and CD spectra were obtained on a Cary 61 spectrophotometer. All elemental analyses were within ±0.4% of the theoretical values. Actinomycin D, batch no. NCS 3053, lot L554651-0-10, was provided by Natural Products Branch, National Cancer Institute, Silver Spring, Md. Calf thymus DNA type 1 was purchased from Sigma Chemical Co.

[11] = test system: proliferating cells; settings: cited from earlier work
[12] = three injections ip, q4d 1, 5, 9

## Cc1c2oc3c(C)ccc(C(=O)N[C@@H]4C(=O)N[C@H](C(C)C)C(=O)N5CCC[C@H]5C(=O)N(C)CC(=O)N(C)[C@@H](C(C)C)C(=O)O[C@@H]4C)c3nc-2c(C(=O)N[C@@H]2C(=O)N[C@H](C(C)C)C(=O)N3CCC[C@H]3C(=O)N(C)CC(=O)N(C)[C@@H](C(C)C)C(=O)O[C@@H]2C)c(N)c1=O [Compound 1b, Actinomycin D, reference compound] (I: T[dV]P[Sar][NMeV] / II: T[dV]P[Sar][NMeV]; ester I:1-I:C, II:1-II:C; linker I:N-II:N via Actinocin(9to1))
[1]
  IC50: 0.06 µg/mL (≈ 0.0478 µM)
[2]
  inhibition of DNA-dependent RNA synthesis: strongly inhibits
[3]
  mode of DNA binding, same way as AMD: by intercalation of the chromophore and concomitant hydrogen and hydrophobic interactions of the peptide lactones
[4]
  toxicity: acute and cumulative toxicity
[5]; four injections ip, qd 1-4
  MTD (maximum tolerated dose, lethal for 10% of normal mice; = LD10): 0.15 milligrams/kilogram
[5]; [12]
  MTD (maximum tolerated dose, lethal for 10% of normal mice; = LD10): 0.25 milligrams/kilogram
[6]; 0.031 mg/kg ip
  % ILS (percent increase in life span): 18%
  MST (median survival time): 13 days
  cure (over 55 day survivors): 0/7
[6]; 0.062 mg/kg ip
  % ILS (percent increase in life span): 45%
  MST (median survival time): 16 days
  cure (over 55 day survivors): 1/7
[6]; 0.125 mg/kg ip
  % ILS (percent increase in life span): 136%
  MST (median survival time): 26 days
  cure (over 55 day survivors): 0/7
[6]; 0.250 mg/kg ip
  % ILS (percent increase in life span): 55%
  MST (median survival time): 17 days
  cure (over 55 day survivors): 0/7
[6]; 0.375 mg/kg ip
  MST (median survival time): 9 days
[6]; four injections ip, qd 1-4
  minimal effective dose: 0.05 mg/kg
  therapeutic index: MTD/MED: 3
[6]; [12]
  minimal effective dose: 0.0625 mg/kg
  therapeutic index: MTD/MED: 4
[6]; ip, q4d 1, 5, 9
  activity in respect of % ILS, 1b versus 2b: approximately equiactive
  breadth of dose-response curve: very narrow
[7]
  pathology of spleen sections: haematopoiesis indicative of bone-marrow toxicity
[8]
  activity in several tumors: potent activity
[9]
  in vivo metabolism: not metabolized in vivo
[10]; drug 1.4 × 10^-4 M, DNA (P) 1.4 × 10^-3 M, 0.01 M phosphate buffer pH 7.0, EDTA, 5% dimethyl sulfoxide
  Tm (ΔTm = Tm of DNA-drug complex minus Tm of DNA): 7.1 ± 0.15 °C
[10]; thermal denaturation, words
  DNA melting profile / ΔTm character of the DNA complex: sharp and smooth
[11]
  cytotoxicity in proliferating cells versus nonproliferating (liver, kidney, muscle): far more cytotoxic in those proliferating cells
